Two compounds from patent US12729458B2, “Discovery and evolution of biologically active metabolites” (The Regents of the University of Colorado, a Body Corporate, priority 2020, dated 2026) can be followed below.

Common to all, as to format: biochemical, H. sapiens
The target of test [1] is T1, SHP2 (SHP2223-565) (Homo sapiens, UniProt Q06124).
T1 construct: made in house; host or cells: E. coli BL21 (DE3)
T1 sequence (Q06124 223-565 limits assumed): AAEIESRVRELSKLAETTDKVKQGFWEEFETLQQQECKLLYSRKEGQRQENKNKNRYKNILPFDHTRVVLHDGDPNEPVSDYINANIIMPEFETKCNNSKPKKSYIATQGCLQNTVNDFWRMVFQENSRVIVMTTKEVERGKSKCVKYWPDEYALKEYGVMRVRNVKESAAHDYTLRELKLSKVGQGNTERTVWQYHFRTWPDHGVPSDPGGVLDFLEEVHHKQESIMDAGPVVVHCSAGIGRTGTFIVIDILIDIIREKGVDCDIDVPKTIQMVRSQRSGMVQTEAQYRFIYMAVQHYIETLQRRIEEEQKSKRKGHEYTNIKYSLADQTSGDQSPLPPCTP
The test can be described thus: SHP2-catalyzed hydrolysis of 4-MUP in the presence of terpenoids. The conditions noted are these: for Ki: SHP2223-565. The method, then: (§1) Enzyme kinetics. To examine terpenoid-mediated inhibition, we measured PTP-catalyzed hydrolysis of p-nitrophenyl phosphate (pNPP) or 4-methylumbelliferyl phosphate (4-MUP, used when KM for pNPP was large) in the presence of various concentrations of terpenoids. Each reaction included PTP (0.05 μM PTP1B/TCPTP or 0.1 μM SHP1/SHP2 in 50 mM HEPES, 0.5 mM TCEP, 50 μg/ml BSA), pNPP (0.33, 0.67, 2, 5, 10, and 15 mM) or 4-MUP (0.13, 0.27, 0.8, 2.27, 2.93, 4.53, 7.07, and 8 mM), inhibitor (with concentrations listed in the figures), buffer (50 mM HEPES pH=7.3, 50 μg/ml BSA), and DMSO at 10% v/v. We monitored the formation of p-nitrophenol by measuring absorbance at 405 nm every 10 seconds for 5 minutes on a SpectraMax M2 plate reader and the formation of 4-methylumbelliferyl by measuring fluorescence at 450 nm (370 nm ex, 435 nm cutoff, medium gain).
(§2) We used a custom MATLAB script to process all raw kinetic data. This script removed all concentration values that fell outside of either (i) the range of our standard curve (absorbance/fluorescence vs. μM; FIG. 39) or (ii) the initial rate regime (>10% of the pNPP or 4-MUP concentration used in the assay). When this step reduced kinetic dataset to fewer than ten points, we re-measured those datasets to collect at least ten. We fit final datasets, in turn, with a linear regression model (using Matlab's backslash operator).
(§3) We evaluated kinetic models in three steps: (i) We fit initial-rate measurements collected in the absence and presence of inhibitors to Michaelis-Menten and inhibition models, respectively (here, we used the nlinfit and fminsearch functions from MATLAB; TABLE 12). (ii) We used an F-test to compare the mixed model to the single-parameter model with the least sum squared error (here, we used the fedf function from MATLAB to assign p-values), and we accepted the mixed model when p<0.05. (iii) We used the Akaike's Information Criterion (AIC) to compare the best-fit single parameter model to each alternative single parameter model, and we accepted the “best-fit” model when the difference in AIC (Δi) exceed 5 for all comparisons.^78 We note: For AD, AB, and (+) 1-(10),4-cadinadiene this criterion was not met; both noncompetitive and uncompetitive models, however, yielded indistinguishable ICso's.
(§4) We used the MATLAB function “nlparci” to determine the confidence intervals of kinetic parameters, and we propagated those intervals to estimate corresponding confidence intervals for each IC50.

The target of test [2] is T2, TC-PTP (TCPTP1-317; TCPTP292 in FIG. 12) (Mus musculus, UniProt Q06180).
T2 construct: His-tag; made in house; host or cells: E. coli BL21 (DE3), pET16b
T2 sequence (Q06180 1-317): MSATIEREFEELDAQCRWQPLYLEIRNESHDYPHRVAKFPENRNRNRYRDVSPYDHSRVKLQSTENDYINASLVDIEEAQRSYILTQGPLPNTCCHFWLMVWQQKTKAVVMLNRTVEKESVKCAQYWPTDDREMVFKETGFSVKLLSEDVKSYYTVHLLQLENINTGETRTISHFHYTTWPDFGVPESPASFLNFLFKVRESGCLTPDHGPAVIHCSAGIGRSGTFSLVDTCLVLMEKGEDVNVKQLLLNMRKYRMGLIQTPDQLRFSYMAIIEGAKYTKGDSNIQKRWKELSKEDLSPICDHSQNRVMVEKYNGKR
In words: TC-PTP-catalyzed hydrolysis of pNPP in the presence of terpenoids. The conditions noted are these: TCPTP1-317. The method, then:
as §1, §2, §3, §4

Test [3] deals with TC-PTP (TCPTP1-317; TCPTP292 in FIG. 12). The test is described as above. The conditions noted are these: PTP1B321 vs TCPTP292 / TC-PTP, pNPP. On the procedure:
as §1, §2, §3, §4

[4] abbreviates: mixed model, competitive constant, read-out: Fit par. Ki,c, mixed model.
Where [5] appears, read: mixed model, uncompetitive constant, read-out: Fit par. Ki,u, mixed model.
[6] abbreviates: noncompetitive model of inhibition, read-out: Fit par. Ki, noncompetitive model.
The mark [7] stands for this setting: uncompetitive model of inhibition, read-out: Fit par. Ki, uncompetitive model.

Entries after “also recorded” stand apart in the source; their conditions may differ. Read-outs that look alike come from different tables or passages of the source.

For `C=C(C)[C@@H]1CC[C@@H](C)[C@@H]2CCC(C)=C[C@@H]21` [amorphadiene], the “potency against SHP2 relative to PTP1B” value in test [1] (4-MUP, less potent on SHP2) is given as “three-fold”. The inhibitory constant (Ki) is 25.1 µM in test [1] (competitive model of inhibition, read-out: Fit par. Ki, competitive model); 236 µM in test [1] (setting [4]); 132 µM in test [1] (setting [5]); 146 µM in test [1] (setting [6]); 117 µM in test [1] (setting [7]); 356 µM in test [2] (setting [5]). The values for the Ki in test [2] (setting [6]) and in test [2] (setting [7]) were 400 µM and 356 µM, respectively. Moreover, the “potency against PTP1B relative to TC-PTP (selectivity from IC50's)” value in test [3] is recorded as “~ five-fold; also recorded: much more potently”; in test [3] (listed as AD), “five- to six-fold”.
As for `CC(C)=CCC=C(C)C1CC=C(C)CC1` (stereo not drawn) [α-bisabolene], the “inhibition of SHP2” value in test [1] (4-MUP) is recorded as “low potency”. In addition, in test [1] (at the solubility limit, 4-MUP), the “% inhibition of SHP2” value is on record as at most 25%. For the same compound, the Ki in test [2] (setting [4]) turned out to be 3610 µM; in test [2] (setting [5]), 69.3 µM; in test [2] (setting [6]), 76.2 µM; in test [2] (setting [7]), 69.2 µM. Besides, the figures for the “potency against PTP1B relative to TC-PTP (selectivity from IC50's)” value in test [3] and in test [3] (listed as AB) were “much more potently” and “five- to six-fold”, respectively.

As a reminder, the Ki is a dissociation constant, usually derived from enzyme kinetics or from competition with a known ligand.
